Values quoted from earlier work as cited in patent US20150086650A1 (priority 2012, published 2015).

How the values were obtained:
[1] = rats

CO/C=C(/C(=O)OC)c1ccccc1Oc1cc(Oc2ccccc2C#N)ncn1 [Azoxystrobin]
inhalation toxicity classification: toxic by inhalation
acute oral LD50 [1]: more than 5,000 mg/kg
